Experimental data from ChEMBL document CHEMBL1148995, “Antitumor agents from bohemic acid complex, VI. Schaunardimycin” (J Nat Prod, 1984).

Key:
L1210 [1] = assay: Antitumor activity against mouse L1210 cells implanted in CDF1 mouse assessed as median survival time at 12.8 mg/kg, ip single dose on day 1; type: functional; conditions: route intraperitoneal
L1210 [2] = assay: Antitumor activity against mouse L1210 cells implanted in CDF1 mouse assessed as median survival time at 6.4 mg/kg, ip single dose on day 1; type: functional; conditions: route intraperitoneal
L1210 [3] = assay: Antitumor activity against mouse L1210 cells implanted in CDF1 mouse assessed as median survival time at 3.2 mg/kg, ip single dose on day 1; type: functional; conditions: route intraperitoneal
L1210 [4] = assay: Antitumor activity against mouse L1210 cells implanted in CDF1 mouse assessed as median survival time at 1.6 mg/kg, ip single dose on day 1; type: functional; conditions: route intraperitoneal
L1210 [5] = assay: Antitumor activity against mouse L1210 cells implanted in CDF1 mouse assessed as median survival time at 0.8 mg/kg, ip single dose on day 1; type: functional; conditions: route intraperitoneal
L1210 [6] = assay: Antitumor activity against mouse L1210 cells implanted in CDF1 mouse assessed as median survival time at 0.4 mg/kg, ip single dose on day 1; type: functional; conditions: route intraperitoneal
L1210 [7] = assay: Antitumor activity against mouse L1210 cells implanted in CDF1 mouse assessed as median survival time at 0.2 mg/kg, ip single dose on day 1; type: functional; conditions: route intraperitoneal
L1210 [8] = assay: Antitumor activity against mouse L1210 cells implanted in CDF1 mouse at 12.8 mg/kg, ip single dose on day 1 relative to control; type: functional; conditions: route intraperitoneal
L1210 [9] = assay: Antitumor activity against mouse L1210 cells implanted in CDF1 mouse at 6.4 mg/kg, ip single dose on day 1 relative to control; type: functional; conditions: route intraperitoneal
L1210 [10] = assay: Antitumor activity against mouse L1210 cells implanted in CDF1 mouse at 3.2 mg/kg, ip single dose on day 1 relative to control; type: functional; conditions: route intraperitoneal
L1210 [11] = assay: Antitumor activity against mouse L1210 cells implanted in CDF1 mouse at 1.6 mg/kg, ip single dose on day 1 relative to control; type: functional; conditions: route intraperitoneal
L1210 [12] = assay: Antitumor activity against mouse L1210 cells implanted in CDF1 mouse at 0.8 mg/kg, ip single dose on day 1 relative to control; type: functional; conditions: route intraperitoneal
L1210 [13] = assay: Antitumor activity against mouse L1210 cells implanted in CDF1 mouse at 0.4 mg/kg, ip single dose on day 1 relative to control; type: functional; conditions: route intraperitoneal
L1210 [14] = assay: Antitumor activity against mouse L1210 cells implanted in CDF1 mouse at 0.2 mg/kg, ip single dose on day 1 relative to control; type: functional; conditions: route intraperitoneal
Mus musculus [15] = assay: Toxicity in mouse L1210 cells implanted CDF1 mouse assessed as average weight gain at 12.8 mg/kg, ip single dose on day 1; type: organism-based; parameters: dose 12.8 mg/kg, route intraperitoneal; conditions: in vivo
Mus musculus [16] = assay: Toxicity in mouse L1210 cells implanted CDF1 mouse assessed as average weight gain at 6.4 mg/kg, ip single dose on day 1; type: organism-based; parameters: dose 6.4 mg/kg, route intraperitoneal; conditions: in vivo
Mus musculus [17] = assay: Toxicity in mouse L1210 cells implanted CDF1 mouse assessed as average weight gain at 3.2 mg/kg, ip single dose on day 1; type: organism-based; parameters: dose 3.2 mg/kg, route intraperitoneal; conditions: in vivo
Mus musculus [18] = assay: Toxicity in mouse L1210 cells implanted CDF1 mouse assessed as average weight gain at 1.6 mg/kg, ip single dose on day 1; type: organism-based; parameters: dose 1.6 mg/kg, route intraperitoneal; conditions: in vivo
Mus musculus [19] = assay: Toxicity in mouse L1210 cells implanted CDF1 mouse assessed as average weight gain at 0.8 mg/kg, ip single dose on day 1; type: organism-based; parameters: dose 0.8 mg/kg, route intraperitoneal; conditions: in vivo
Mus musculus [20] = assay: Toxicity in mouse L1210 cells implanted CDF1 mouse assessed as average weight gain at 0.4 mg/kg, ip single dose on day 1; type: organism-based; parameters: dose 0.4 mg/kg, route intraperitoneal; conditions: in vivo
Mus musculus [21] = assay: Toxicity in mouse L1210 cells implanted CDF1 mouse assessed as average weight gain at 0.2 mg/kg, ip single dose on day 1; type: organism-based; parameters: dose 0.2 mg/kg, route intraperitoneal; conditions: in vivo
Mus musculus [22] = assay: Toxicity in mouse L1210 cells implanted CDF1 mouse assessed as survivors on day 5 at 6.4 mg/kg, ip single dose on day 1; type: organism-based; parameters: dose 6.4 mg/kg, route intraperitoneal; conditions: in vivo
Mus musculus [23] = assay: Toxicity in mouse L1210 cells implanted CDF1 mouse assessed as survivors on day 5 at 3.2 mg/kg, ip single dose on day 1; type: organism-based; parameters: dose 3.2 mg/kg, route intraperitoneal; conditions: in vivo
Mus musculus [24] = assay: Toxicity in mouse L1210 cells implanted CDF1 mouse assessed as survivors on day 5 at 1.6 mg/kg, ip single dose on day 1; type: organism-based; parameters: dose 1.6 mg/kg, route intraperitoneal; conditions: in vivo
Mus musculus [25] = assay: Toxicity in mouse L1210 cells implanted CDF1 mouse assessed as survivors on day 5 at 0.8 mg/kg, ip single dose on day 1; type: organism-based; parameters: dose 0.8 mg/kg, route intraperitoneal; conditions: in vivo
Mus musculus [26] = assay: Toxicity in mouse L1210 cells implanted CDF1 mouse assessed as survivors on day 5 at 0.4 mg/kg, ip single dose on day 1; type: organism-based; parameters: dose 0.4 mg/kg, route intraperitoneal; conditions: in vivo
Mus musculus [27] = assay: Toxicity in mouse L1210 cells implanted CDF1 mouse assessed as median survival time at 25.6 mg/kg, ip single dose on day 1; type: organism-based; parameters: dose 25.6 mg/kg, route intraperitoneal; conditions: in vivo
L1210 [28] = assay: Antitumor activity against mouse L1210 cells implanted in CDF1 mouse at 0.2 mg/kg, ip qd for 1 to 5 days relative to control; type: functional; conditions: route intraperitoneal

CC[C@@]1(O)C[C@H](O[C@H]2C[C@H](N(C)C)[C@H](O[C@H]3C[C@H](O)[C@H](O[C@H]4C[C@H](O)[C@H](O)[C@H](C)O4)[C@H](C)O3)[C@H](C)O2)c2c(cc3c(c2O)C(=O)c2c(O)ccc(O)c2C3=O)[C@H]1C(=O)OC [MARCELLOMYCIN]
MST (L1210 [1]): 9.5 days | MST (L1210 [2]): 8.5 days | MST (L1210 [3]): 8.5 days | MST (L1210 [4]): 8 days | MST (L1210 [5]): 7 days | MST (L1210 [6]): 6.5 days | MST (L1210 [7]): 6 days | T/C (L1210 [8]): 158% | T/C (L1210 [9]): 142% | T/C (L1210 [10]): 142% | T/C (L1210 [11]): 133% | T/C (L1210 [12]): 117% | T/C (L1210 [13]): 108% | T/C (L1210 [14]): 100% | Activity (Mus musculus [15]): -1.9 g | Activity (Mus musculus [16]): -1.7 g | Activity (Mus musculus [17]): -0.5 g | weight gain (Mus musculus [18]): 1.4 g | weight gain (Mus musculus [19]): 1.8 g | weight gain (Mus musculus [20]): 2.8 g | weight gain (Mus musculus [21]): 2.7 g | Activity (Mus musculus [22]): Active | Activity (Mus musculus [23]): Active | Activity (Mus musculus [24]): Active | Activity (Mus musculus [25]): Active | Activity (Mus musculus [26]): Active | Activity (Mus musculus [27]): Toxic | T/C (L1210 [28]): 117%
